US8865700B2, “Collagen stimulators and their use in the treatment of skin” (Avon Products, Inc., priority 2012, dated 2014)

Test system: Normal Human dermal fibroblasts
Assay: Procollagen assay (Procollagen Type-I C-Peptide EIA) in conditioned media of treated fibroblasts
Assay type: cell-based
Conditions: 0.0005% compound, 48 hours, ELISA, p<0.05
Description: Normal Human dermal fibroblasts were grown in DMEM (Mediatech; cat. #: 15-013-CV) containing 10% Fetal Bovine Serum (Perbio; cat. #: SH30070.03), Penicillin/Streptomycin (Mediatech, Cat #30-001-C1), L-Glutamine (Mediatech; cat. #: 25-005-CI) at 37° C. and 10% CO2. Cells were stripped of serum overnight, followed by treatment with the compound of Formula I(b) (0.0005%) or vehicle (DMSO), in the absence of serum for 48 hours.
Reading was measured at 450 nm using a spectrophotometer.
Human dermal fibroblasts treated with 0.0005% the compound of Formula I(b) for 48 hours were analyzed by ELISA for expression levels of pro-collagen. […] All values are statistically significant at p<0.05.

**Q.** `N#Cc1cccc(CN2CCNC(=O)CC2c2nccs2)c1` (centres unmarked) [Formula I(b)] was tested. Which Procollagen (serum-free, relative to vehicle (DMSO) control = 100%, 450 nm) did it give?
**A.** The Procollagen was 146%.

**Q.** And the “pro-collagen expression level relative to control, vehicle treated cells” value?
**A.** Its value is “significant increase”.
